Experimental data: PMC6001238, “Iterative Chemical Engineering of Vancomycin Leads to Novel Vancomycin Analogs With a High in Vitro Therapeutic Index” (Frontiers in Microbiology, 2018)
Converted amounts (≈) assume the structure as drawn. Where two headings read alike, the source gives them in different places.

Assays:
[1] = tested on: VE 149 (VanB); assay: MIC, VanB-type VRE strain VE 149; type: cell-based, Enterococcus; details: VE 149, VanB; read-out: MIC
Procedure: (§1) The minimum inhibitory concentration (MIC) was determined using the broth microdilution method according to the antimicrobial susceptibility testing standards of the clinical and laboratory standards institute ([Clinical and Laboratory Standards Institute [CLSI], 2012]). Ultrapure water and non-inoculated broth were used as controls. In one case, a final concentration of 10 μM vancomycin was included with the vancomycin analog or control antibiotic.

[2] = tested on: human cervix carcinoma (HeLa) cells; assay: Cytostatic activity, HeLa cell proliferation; type: cell-based; details: mean ± SD of three experiments; highest concentration tested 250 µM; 4 days; read-out: Toxicity (IC50) HeLa
Outline: (§2)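 Suspensions (300,000–500,000 cells/mL) combined with equal volumes of diluted compound; 37°C; L1210 2 d / CEM 3 d / HeLa 4 d; counted by Coulter counter; IC50 vs untreated wells.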

[3] = tested on: E. faecalis VRE 37; assay: MIC, broth microdilution, vancomycin-resistant E. faecalis VRE 37 (VanA); type: cell-based, Enterococcus faecalis
Outline: (§3)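 Serial dilutions in broth, set up per CLSI guidance, gave the MIC. Where noted, test analogues or comparator antibiotics were combined with vancomycin at 10 μM final. Controls: ultrapure water, broth without inoculum.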

[4] = tested on: E. faecalis VRE 53; assay: MIC, broth microdilution, vancomycin-resistant E. faecalis VRE 53 (VanA); type: cell-based, Enterococcus faecalis
Outline: as §3

[5] = tested on: VRE39; assay: MIC in the absence and presence of 10 µM vancomycin (vanA induction); type: cell-based, Enterococcus faecalis
Procedure: as §1

[6] = tested on: E. faecalis VSE 1; assay: MIC, broth microdilution, vancomycin-sensitive E. faecalis (VSE 1); type: cell-based, Enterococcus faecalis
Outline: as §3

[7] = tested on: human T-lymphocyte (CEM) cells; assay: Cytostatic activity, CEM cell proliferation; type: cell-based; details: mean ± SD of three experiments; highest concentration tested 250 µM; 3 days; read-out: Toxicity (IC50) CEM
Outline: as §2

[8] = tested on: S. aureus VISA/HIP5827; assay: MIC, broth microdilution, vancomycin-intermediate S. aureus VISA HIP5827; type: cell-based, Staphylococcus aureus
Outline: as §3

[9] = tested on: VE 157 (VanB); assay: MIC, VanB-type VRE strain VE 157; type: cell-based, Enterococcus; details: VE 157, VanB; read-out: MIC
Procedure: as §1

[10] = tested on: S. aureus VRSA; assay: MIC, broth microdilution, vancomycin-resistant S. aureus (VRSA); type: cell-based, Staphylococcus aureus
Outline: as §3

[11] = tested on: VE 152 (VanB); assay: MIC, VanB-type VRE strain VE 152; type: cell-based, Enterococcus; details: VE 152, VanB; read-out: MIC
Procedure: as §1

[12] = tested on: Murine leukemia (L1210) cells; assay: Cytostatic activity, L1210 cell proliferation; type: cell-based; details: mean ± SD of three experiments; highest concentration tested 250 µM; 2 days; read-out: Toxicity (IC50) L1210
Outline: as §2

[13] = tested on: VE 148 (VanB); assay: MIC, VanB-type VRE strain VE 148; type: cell-based, Enterococcus; details: VE 148, VanB; read-out: MIC
Procedure: as §1

[14] = tested on: E. faecalis VRE 6; assay: MIC, broth microdilution, vancomycin-resistant E. faecalis VRE 6 (VanA); type: cell-based, Enterococcus faecalis
Outline: as §3

[15] = tested on: MRSA; assay: Minimum bactericidal concentration against MRSA; type: cell-based, Staphylococcus aureus
Procedure: Plates were incubated overnight at 37°C and colony growth was inspected.

[16] = tested on: E. faecalis VRE 29; assay: MIC, broth microdilution, vancomycin-resistant E. faecalis VRE 29 (VanA); type: cell-based, Enterococcus faecalis
Outline: as §3

[17] = tested on: L1210, CEM and HeLa cell lines; assay: Cytostatic activity, average or summary over L1210, CEM and HeLa; type: cell-based
Outline: as §2

[18] = tested on: 33 clinical VRE isolates; assay: MIC against a set of 33 clinical VRE isolates (range, MIC50, TI); type: cell-based, Enterococcus faecalis
Procedure: as §1

[19] = tested on: S. aureus VSSA (ATCC 6538); assay: MIC, broth microdilution, vancomycin-sensitive S. aureus (VSSA/MSSA, ATCC 6538); type: cell-based, Staphylococcus aureus
Outline: as §3

[20] = tested on: 24 clinical MRSA isolates; assay: MIC against a set of 24 clinical MRSA isolates (range, MIC50, TI); type: cell-based, Staphylococcus aureus
Procedure: as §1

[21] = tested on: MRSA KS89; assay: MIC, broth microdilution, MRSA KS89; type: cell-based, Staphylococcus aureus
Outline: as §3

[22] = tested on: VE 150 (VanB); assay: MIC, VanB-type VRE strain VE 150; type: cell-based, Enterococcus; details: VE 150, VanB; read-out: MIC
Procedure: as §1

[23] = tested on: VE 82 (VanC1); assay: MIC, VanC1-type VRE strain VE 82; type: cell-based, Enterococcus gallinarum; details: VE 82, VanC1; read-out: MIC
Procedure: as §1

CNC(CC(C)C)C(=O)NC1C(=O)NC(CC(N)=O)C(=O)NC2C(=O)NC3C(=O)NC(C(=O)NC(C(=O)NCC(=O)Nc4ccc(-c5ccccc5)cc4)c4cc(O)cc(O)c4-c4cc3ccc4O)C(O)c3ccc(c(Cl)c3)Oc3cc2cc(c3OC2OC(CO)C(O)C(O)C2OC2CC(C)(N)C(O)C(C)O2)Oc2ccc(cc2Cl)C1O (stereo not shown) [Vanc-83]
MIC [1]: 1.56 µM (≈ 2.59 µg/mL)
IC50 [2]: 105 ± 27 µM
MIC ([3]; Enterococcus faecalis VRE 37 (vancomycin-resistant), read-out: MIC): 1.56 µM (≈ 2.59 µg/mL)
MIC-fold improvement vs. vancomycin ([3]; VRE 37, ratio of MIC of vancomycin and MIC of analogue): 256
MIC ([4]; Enterococcus faecalis VRE 53 (vancomycin-resistant), read-out: MIC): 1.56 µM (≈ 2.59 µg/mL)
MIC-fold improvement vs. vancomycin ([4]; VRE 53, ratio of MIC of vancomycin and MIC of analogue): 256
MIC ([5]; VRE39, 0 µM vancomycin): 1.56 µM
MIC ([5]; VRE39, 10 μM vancomycin added): 3.13 µM
MIC ([6]; Enterococcus faecalis VSE 1 (vancomycin-sensitive), read-out: MIC): 0.39 µM (≈ 0.646 µg/mL)
MIC-fold improvement vs. vancomycin ([6]; VSE 1, ratio of MIC of vancomycin and MIC of analogue): 4
IC50 [7]: 37 ± 6 µM
MIC ([8]; Staphylococcus aureus VISA/HIP5827, read-out: MIC): 1.56 µM (≈ 2.59 µg/mL)
MIC-fold improvement vs. vancomycin ([8]; VISA/HIP5827, ratio of MIC of vancomycin and MIC of analogue): 4
MIC [9]: 1.56 µM (≈ 2.59 µg/mL)
MIC ([10]; Staphylococcus aureus VRSA, read-out: MIC): 0.39 µM (≈ 0.646 µg/mL)
MIC-fold improvement vs. vancomycin ([10]; VRSA, ratio of MIC of vancomycin and MIC of analogue): 256
MIC [11]: 1.56 µM (≈ 2.59 µg/mL)
IC50 [12]: 179 ± 41 µM
MIC [13]: 1.56 µM (≈ 2.59 µg/mL)
MIC ([14]; Enterococcus faecalis VRE 6 (vancomycin-resistant), read-out: MIC): 0.78 µM (≈ 1.29 µg/mL)
MIC-fold improvement vs. vancomycin ([14]; VRE 6, ratio of MIC of vancomycin and MIC of analogue): 256
MBC relative to MIC [15]: MBC equaling their MIC values
MIC ([16]; Enterococcus faecalis VRE 29 (vancomycin-resistant), read-out: MIC): 1.56 µM (≈ 2.59 µg/mL)
MIC-fold improvement vs. vancomycin ([16]; VRE 29, ratio of MIC of vancomycin and MIC of analogue): 256
IC50 ([17]; average IC50 used for TI in Table S5, >250 entered as 250, read-out: IC50): 107 µM
IC50 ([17]; average of L1210, CEM and HeLa, read-out: Toxicity (IC50) Average): 107 µM
MIC Range ([18]; 33 clinical VRE isolates): 0.78 to 3.13 µM
TI (IC50/MIC50) ([18]; in vitro therapeutic index, VRE): 69
MIC ([19]; Staphylococcus aureus VSSA, read-out: MIC): 0.20 µM (≈ 0.332 µg/mL)
MIC-fold improvement vs. vancomycin ([19]; VSSA, ratio of MIC of vancomycin and MIC of analogue): 4
MIC Range ([20]; 24 clinical MRSA isolates): 0.10 to 0.78 µM
TI (IC50/MIC50) ([20]; in vitro therapeutic index, MRSA): 535
MIC50 ([20]; median MIC, 24 clinical MRSA isolates, read-out: MIC50): 0.20 µM (≈ 0.332 µg/mL)
MIC-fold improvement vs. vancomycin ([21]; MRSA KS8, ratio of MIC of vancomycin and MIC of analogue): 4
MIC ([21]; Staphylococcus aureus MRSA KS8, read-out: MIC): 0.20 µM (≈ 0.332 µg/mL)
MIC [22]: 1.56 µM (≈ 2.59 µg/mL)
MIC [23]: 0.78 µM (≈ 1.29 µg/mL)
